According to US11833137B2, “Substituted chromenones, IRE1 inhibitors, and methods of using same” (The Wistar Institute, priority 2018, dated 2023):
“Also recorded” adds a separate entry of the source.

Tests used:
[1] = tested on: XBP-1s expression, 5TGM1 cells; test: XBP-1s immunoblot in 5TGM1 multiple myeloma cells; type: cell-based, mouse; details: for suppression of XBP-1s expression, long term: 10 μM for a course of 3 days
Protocol: 5TGM1 mouse multiple myeloma cells, primary mouse B cells, primary mouse Eμ-TCL1 CLL cells, and human CLL cell lines (MEC2 and WaC3) were cultured at 37° C. in a 5% CO2 incubator using RPMI 1640 media (Gibco) supplemented with 10% heat-inactivated FBS, 2 mM L-glutamine, 100 U/mL penicillin G sodium, 1 mM sodium pyruvate, 0.1 mM non-essential amino acids, 100 μg/mL streptomycin sulfate and 0.1 mM β-mercaptoethanol (β-ME).
Cells were lysed using RIPA buffer (10 mM Tris-HCl, pH 7.4, 150 mM NaCl, 1% NP-40, 0.5% sodium deoxycholate, 0.1% SDS, and 1 mM EDTA) supplemented with protease inhibitors (Roche). Protein concentrations were determined by BCA assays (Pierce).
Samples were boiled in SDS-PAGE sample buffer (62.5 mM Tris-HCl, pH 6.8, 2% SDS, 10% glycerol, 0.1% bromophenol blue) with β-ME and analyzed by SDS-PAGE. Proteins were transferred to nitrocellulose membranes, blocked in 5% nonfat milk (wt/vol in PBS), and immunoblotted with indicated primary antibodies and appropriate horseradish peroxidase-conjugated secondary antibodies. Immunoblots were developed using Western Lighting Chemiluminescence Reagent (PerkinElmer).
To develop inhibitors with improved potency to target the IRE1/XBP-1 pathway, tricyclic chromenone-based IRE1 RNase inhibitors with different amine group (R^1) were synthesized and compared: allyloxycarbonyl (alloc) in B-H09 (1), —H in C-B06 (2), and —CH3 in C-D06 (3) (FIG. 1A). 5TGM1 multiple myeloma cells were chosen to evaluate inhibitory effects of these inhibitors because they have constitutively activated IRE1/XBP-1 pathways.

[2] = tested on: 5TGM1 cells; test: Cell proliferation XTT assay, 5TGM1; type: cell-based, mouse; details: 20 μM for a course of 3 days
Protocol: 5TGM1 cells were suspended in phenol red-free RPMI media, seeded in 96-well cell culture plates, and treated with indicated IRE1 inhibitors (20 μM, unless indicated otherwise). At indicated time points, cells were spun down and cell proliferation was assessed by XTT assays (Roche) according to the manufacturer's instructions. Briefly, 50 μl XTT labeling reagent, 1 μl electron-coupling reagent, and 100 μl phenol red-free RPMI media were combined and applied to each well of the 96-well plates. Cells were incubated for 4 h in a CO2 incubator to allow for the yellow tetrazolium salt XTT to be cleaved by mitochondrial dehydrogenases of metabolically active cells to form the orange formazan dye, which can be quantified at 492 nm using a BioTek SYNERGY™ NEO2 Multimode Reader.

[3] = Compound degradation HPLC assay; type: physicochemical; details: 37° C.
Protocol: A 20 mM DMSO stock solution of analyte compounds (7, 8, D-F07, PC-D-F07 and TC-D-F07) were diluted to 400 μM with PBS, pH 7.4, or to 800 μM with RMPI plus 10% FBS culture media (experiments with TC-D-F07 were performed using RPMI without FBS). After incubation at 37° C., aliquots at various time points were injected onto an analytical HPLC instrument and the peaks integrated (UV monitored at 220 nm). Intact compound relative to t=0 was plotted as a function of time.

Compound	inhibition of XBP-1s expression, short term ([1]; 2.5 μM for 1, 2 or 4 h)	inhibition of XBP-1s expression ([1]; 10 μM for 0, 3, 6, 12 or 24 h)	suppression of XBP-1s expression, long term [1]	overall comparison of inhibition of IRE-1 / XBP-1s expression in whole cells ([1]; summary statement)	growth inhibition / cytotoxicity (XTT) [2]	concentration that effectively blocks XBP-1s expression ([1]; 24 h) [µM]	suppression of XBP-1s after removal of compound from media ([1]; 10 μM 4 h, washed, UV 10 min, 8 h culture)	stability (HPLC) ([3]; PBS, 48 h)	stability (HPLC) ([3]; RPMI media, 96 h)
CN1CCc2c(c(=O)oc3c(C=O)c(O)ccc23)C1 [Compound 3]	began to lose its inhibitory effect within 4 h	rapidly inhibited the expression of XBP-1s; also recorded: much better long-term inhibitory activities than 1	recovered significantly in cells treated for 2 days	most efficient aldehyde compounds in inhibiting IRE-1 in intact cells					
CN1CCc2c(c(=O)oc3c(C4OCCCO4)c(O)ccc23)C1 [Compound 7, 7-(1,3-dioxan-2-yl)-8-hydroxy-3-methyl-1,2,3,4-tetrahydro-5H-chromeno[3,4-c]pyridin-5-one]			continuously suppressed even after 3-day treatment; also recorded: more effective than 8 in suppressing the expression of XBP-1s for a longer term		more potent than their respective aldehyde counterparts	10			
COc1cc2c3c(c(=O)oc2c(C2OCCCO2)c1OC(C)c1ccc(C(=O)OCC[Si](C)(C)C)cc1[N+](=O)[O-])CN(C)CC3 [PC-D-F07, 2-(trimethylsilyl)ethyl 4-(1-((7-(1,3-dioxan-2-yl)-9-methoxy-3-methyl-5-oxo-1,3,4,5-tetrahydro-2H-chromeno[3,4-c]pyridin-8-yl)oxy)ethyl)-3-nitrobenzoate]							suppression of XBP-1s expression	completely stable	completely stable
